Columns and labels:
[1] = Drug metabolism in human liver microsomes at 1 uM after 15 mins in presence of NADPH by HPLC-MS/MS analysis; type: ADME, microsome; settings: read-out: Drug metabolism
hERG (KCNH2) = hERG (KCNH2) (Homo sapiens, UniProt Q12809); assay: Inhibition of human ERG expressed in HEK293 cells assessed as reduction in outward potassium current at 3 uM at holding potential was -80 mV after 5 mins by patch clamp assay; type: cell-based; settings: HEK293 cells that express hERG
[2] = Drug metabolism in mouse liver microsomes at 1 uM after 15 mins in presence of NADPH by HPLC-MS/MS analysis; type: ADME, microsome; settings: read-out: Drug metabolism
Mus musculus [3] = assay: Antialzheimer activity in CD1 Swiss specific pathogen free mouse assessed as reduction in amyloid beta (1 to 40) levels at 10 mg/kg, po measured after 2 hrs post dose by ELISA; type: functional; set-up: scale not given: the % may be the effect or the level left
[4] = Ratio of total drug level in brain to plasma of in CD1 Swiss specific pathogen free mouse at 10 mg/kg, po after 4 hrs; type: ADME, organism-based
Mus musculus [5] = assay: Antialzheimer activity in CD1 Swiss specific pathogen free mouse assessed as reduction in amyloid beta (1 to 40) levels at 10 mg/kg, po measured after 1 hr post dose by ELISA; type: functional; set-up: scale not given: the % may be the effect or the level left
[6] = Fraction unbound in rat brain at 5 uM after 5 hrs by HPLC-MS/MS method based rapid equilibrium dialysis; type: ADME, tissue-based
[7] = Dissociation constant, pKa of the compound at 25 degC by potentiometric titration assay; type: physicochemical
HepG2 = assay: Cytotoxicity against human HepG2 cells assessed as effect on cell health indicators after 72 hrs by automated fluorescence microscopy based high content screening based assay; type: ADME; settings: hepg2, 72 h
[8] = Fraction unbound in mouse plasma at 5 uM after 4.5 hrs by HPLC-MS/MS method based rapid equilibrium dialysis; type: ADME, cell-free
Mus musculus [9] = assay: Antialzheimer activity in CD1 Swiss specific pathogen free mouse assessed as reduction in amyloid beta (1 to 40) levels at 10 mg/kg, po measured after 4 hrs post dose by ELISA; type: functional; set-up: scale not given: the % may be the effect or the level left
[10] = molecular target: Voltage-gated inwardly rectifying potassium channel KCNH2 (Homo sapiens, UniProt Q12809); assay: Inhibition of human ERG expressed in HEK293 cell membranes by radioligand binding assay
Chain of Voltage-gated inwardly rectifying potassium channel KCNH2 (Q12809 whole entry): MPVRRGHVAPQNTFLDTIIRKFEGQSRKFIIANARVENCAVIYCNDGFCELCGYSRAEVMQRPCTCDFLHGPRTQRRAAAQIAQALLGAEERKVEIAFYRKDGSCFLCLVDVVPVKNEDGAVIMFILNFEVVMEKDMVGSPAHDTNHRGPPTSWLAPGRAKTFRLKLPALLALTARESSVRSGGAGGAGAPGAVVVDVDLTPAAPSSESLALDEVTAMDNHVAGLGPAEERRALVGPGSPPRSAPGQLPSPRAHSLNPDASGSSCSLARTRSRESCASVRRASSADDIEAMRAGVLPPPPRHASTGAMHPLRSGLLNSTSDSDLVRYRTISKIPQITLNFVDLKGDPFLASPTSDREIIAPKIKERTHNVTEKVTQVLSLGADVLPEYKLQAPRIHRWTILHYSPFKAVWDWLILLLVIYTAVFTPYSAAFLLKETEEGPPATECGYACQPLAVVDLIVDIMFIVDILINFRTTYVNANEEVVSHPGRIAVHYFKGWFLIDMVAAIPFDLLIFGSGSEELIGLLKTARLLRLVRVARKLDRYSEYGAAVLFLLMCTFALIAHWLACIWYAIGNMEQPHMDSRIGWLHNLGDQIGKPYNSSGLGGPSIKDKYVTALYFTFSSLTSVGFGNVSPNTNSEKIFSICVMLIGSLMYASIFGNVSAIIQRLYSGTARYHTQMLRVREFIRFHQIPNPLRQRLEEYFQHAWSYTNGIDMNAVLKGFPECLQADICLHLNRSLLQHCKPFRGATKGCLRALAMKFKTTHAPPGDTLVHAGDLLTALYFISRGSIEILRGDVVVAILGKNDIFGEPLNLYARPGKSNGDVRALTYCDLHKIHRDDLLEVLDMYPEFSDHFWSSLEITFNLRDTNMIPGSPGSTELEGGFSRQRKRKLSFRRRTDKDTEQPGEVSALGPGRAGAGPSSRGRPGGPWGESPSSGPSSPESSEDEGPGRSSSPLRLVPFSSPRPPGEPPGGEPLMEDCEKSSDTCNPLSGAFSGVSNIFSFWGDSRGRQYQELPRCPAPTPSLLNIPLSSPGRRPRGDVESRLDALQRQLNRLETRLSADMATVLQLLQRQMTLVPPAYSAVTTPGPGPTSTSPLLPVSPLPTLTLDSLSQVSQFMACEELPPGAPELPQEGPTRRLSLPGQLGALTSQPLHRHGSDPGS

[11] = Ratio of total unbound drug level in brain to plasma of in CD1 Swiss specific pathogen free mouse at 10 mg/kg, po after 4 hrs; type: ADME, organism-based; settings: read-out: K(p,uu,brain)
[12] = system: MDR1 (P-gp) (Homo sapiens); assay: Apparent permeability across apical to basolateral side in pig LLC cells transfected with human MDR1 at 5 uM in absence of elacridar by LC-MS/MS analysis; settings: LLC-PK1
Beta-secretase 1 [13] = molecular target: T1, Beta-secretase 1 (Homo sapiens, UniProt P56817); assay: Inhibition of BACE1 in human SKNBE2 cells transfected with APP695 protein assessed as reduction in amyloid beta (1 to 42) levels after 18 hrs by sandwich alphalisa assay; type: cell-based
T1 sequence (P56817 whole entry, the tested form may be a part): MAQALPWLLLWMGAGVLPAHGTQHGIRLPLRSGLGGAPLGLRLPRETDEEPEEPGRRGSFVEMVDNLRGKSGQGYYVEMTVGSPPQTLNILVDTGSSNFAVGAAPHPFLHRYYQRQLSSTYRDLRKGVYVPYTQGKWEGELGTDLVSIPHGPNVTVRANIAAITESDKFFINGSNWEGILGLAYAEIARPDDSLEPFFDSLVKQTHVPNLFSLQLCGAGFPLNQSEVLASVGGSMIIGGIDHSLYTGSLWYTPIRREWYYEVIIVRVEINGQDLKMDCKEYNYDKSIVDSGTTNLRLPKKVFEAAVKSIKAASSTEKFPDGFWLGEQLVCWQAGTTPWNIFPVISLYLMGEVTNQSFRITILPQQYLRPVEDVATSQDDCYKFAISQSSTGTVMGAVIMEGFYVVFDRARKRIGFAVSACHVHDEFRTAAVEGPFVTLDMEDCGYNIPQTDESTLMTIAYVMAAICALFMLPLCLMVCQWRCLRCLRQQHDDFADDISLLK

Beta-secretase 1 [14] = molecular target: T1, Beta-secretase 1; assay: Inhibition of BACE1 (1 to 454 residues) (unknown origin) using APP derived polypeptide harboring Lys-Met/Asn-Leu mutation as substrate by FRET assay
[15] = Drug metabolism in mouse liver hepatocytes at 1 uM after 60 mins in presence of NADPH by HPLC-MS/MS analysis; type: ADME, cell-based, Hepatocyte; settings: read-out: Drug metabolism
Canis familiaris = assay: Antialzheimer activity in po dosed Beagle dog assessed as reduction in amyloid beta (1 to 40) levels measured after 1 hr post dose by ELISA; type: functional, organism-based, Canis lupus familiaris
Cavia porcellus = assay: Cardiotoxicity in anesthetized guinea pigs assessed as drug level causing QTcB prolongation dosed up to 10 mg/kg, iv administered over a period of 5 min at 15 min interval by ECG analysis; type: toxicity, organism-based; settings: guinea pig, in vivo
[16] = Cmax in anesthetized guinea pig; type: ADME, organism-based, Cavia porcellus; settings: in vivo
[17] = Drug uptake in mouse brain at 30 mg/kg, po measured at 2 to 4 hrs; type: ADME, organism-based; settings: in vivo
TK6 [18] = assay: Genotoxicity in human TK6 cells up to […] after 24 hrs in absence of rat liver S9 fraction by micronucleus assay; type: toxicity, cell-based; settings: tk6, 24 h
TK6 [19] = assay: Genotoxicity in human TK6 cells at 500 ug/ml after 24 hrs in presence of rat liver S9 fraction by micronucleus assay; type: toxicity, cell-based; settings: s9, 24 h
[20] = Drug uptake in mouse brain at 10 mg/kg, po measured at 2 to 4 hrs; type: ADME, organism-based; settings: in vivo
[21] = Plasma concentration in mouse at 10 mg/kg, po after 4 hrs; type: ADME, organism-based

Chain of hERG (KCNH2) (Q12809 whole entry): as the sequence (Q12809 whole entry) above

| metabolised at 0.25 h, 1 µM [1] | metabolised at 0.25 h, 1 µM [2] | IC50 (Beta-secretase 1 [13]) | IC50 (Beta-secretase 1 [14]) | Compound | inhibition at 5 min, 3 µM (hERG (KCNH2)) | IC50 [10] | further results |
| --- | --- | --- | --- | --- | --- | --- | --- |
| 38% | 38% | – | – | C[C@]1(c2cc(NC(=O)c3ncc(C#N)cc3Cl)ccc2F)N=C(N)CO[C@H]1C(F)(F)F | 13% | – | – |
| – | – | 0.251 µM | 2.34 µM | C[C@@]1(c2cc(N/C=C/c3ccc(C#N)cn3)ccc2F)COCC(N)=N1 | – | – | – |
| – | – | – | – | C[C@]1(c2cc(NC(=O)c3ccc(C#N)cn3)ccc2F)N=C(N)CO[C@@H]1F | – | 8 µM | metabolised at 1 h, 1 µM [15]: 0%; fEC50 (Canis familiaris): 0.023 µM; LOAEL (Cavia porcellus): 475 ng/mL; fLOAEL (Cavia porcellus): 0.55 µM; fNOAEL (Cavia porcellus): 0.2 µM; Cmax [16]: 475 ng/mL |
| – | – | 0.0351 µM | 0.151 µM | COc1cnc(C(=O)Nc2ccc(F)c([C@@]3(C)N=C(N)COC3=C(F)F)c2)cn1 | – | > 10 µM | Activity (Mus musculus [3]): 6%; Kp at 4 h [4]: 0.97; fraction unbound at 5 h, 5 µM [6]: 0.017; pKa [7]: 7.9; fraction unbound at 4.5 h, 5 µM [8]: 0.146; Activity (Mus musculus [9]): 7%; Kp uu at 4 h [11]: 0.11; Papp A→B at 5 µM [12]: 8.63 ×10⁻⁶ cm/s |
| – | – | 0.603 µM | 3.02 µM | C[C@]1(c2cc(NC(=O)c3cnc(NC4CC4)cn3)ccc2F)N=C(N)CO[C@H]1C(F)(F)F | – | – | – |
| 56% | 59% | 0.0125 µM | 0.0407 µM | COCCOc1cnc(C(=O)Nc2ccc(F)c([C@@]3(C)N=C(N)CO[C@H]3C(F)(F)F)c2)cn1 | – | – | – |
| 11% | 19% | 0.0122 µM | 0.0184 µM | C[C@]1(c2cc(NC(=O)c3ncc(C#N)cc3F)ccc2F)N=C(N)CO[C@@H]1F | 24% | > 10 µM | Drug uptake [17]: Not Active; Papp A→B at 5 µM [12]: 1.05 ×10⁻⁶ cm/s |
| – | – | 0.0209 µM | 0.0245 µM | C[C@]1(c2cc(NC(=O)c3cnc(OCC(F)(F)F)cn3)ccc2F)N=C(N)CO[C@H]1C(F)(F)F | – | – | – |
| 0% | 48% | – | – | C[C@]1(c2cc(NC(=O)c3ccc(Cl)cn3)ccc2F)N=C(N)CO[C@H]1C(F)(F)F | 27% | – | MTC (HepG2): 13.6 µM |
| – | – | 0.049 µM | 0.0302 µM | C[C@]1(c2cc(NC(=O)c3cnc(OC(F)(F)C(F)(F)F)cn3)ccc2F)N=C(N)CO[C@H]1C(F)(F)F | – | – | – |
| – | – | 4.5 µM | > 10 µM | C[C@]1(c2cc(NC(=O)c3cnc(NCC(F)(F)F)cn3)ccc2F)N=C(N)CO[C@H]1C(F)(F)F | – | – | – |
| – | – | 0.0049 µM | 0.0114 µM | COc1cnc(C(=O)Nc2ccc(F)c([C@@]3(C)N=C(N)CO[C@H]3C(F)F)c2)cn1 | 24% | > 10 µM | Activity (Mus musculus [3]): 38%; Kp at 4 h [4]: 0.4; Activity (Mus musculus [5]): 11%; fraction unbound at 5 h, 5 µM [6]: 0.047; pKa [7]: 8.4; fraction unbound at 4.5 h, 5 µM [8]: 0.279; Activity (Mus musculus [9]): 40%; Kp uu at 4 h [11]: 0.07; Papp A→B at 5 µM [12]: 4.8 ×10⁻⁶ cm/s |
| – | – | – | – | C[C@]1(c2cc(N)ccc2F)N=C(N)CO[C@H]1C(F)(F)F | – | – | Activity (TK6 [18]): Non-Toxic; Activity (TK6 [19]): Non-Toxic |
| – | – | 0.115 µM | 0.457 µM | C[C@]1(c2cc(NC(=O)c3cnc(N4CCC4)cn3)ccc2F)N=C(N)CO[C@H]1C(F)(F)F | – | – | – |
| 1% | 0% | 0.0155 µM | 0.0107 µM | C[C@]1(c2cc(NC(=O)c3ncc(C#N)cc3Cl)ccc2F)N=C(N)CO[C@@H]1F | 19% | > 10 µM | Drug uptake [20]: Not Active; metabolised at 1 h, 1 µM [15]: 55%; concentration at 4 h [21]: 38 ng/mL; Papp A→B at 5 µM [12]: 3.06 ×10⁻⁶ cm/s |
| – | – | – | – | COc1cnc(C(=O)Nc2ccc(F)c([C@@]3(C)N=C(N)CO[C@@H]3F)c2)cn1 | – | > 10 µM | Activity (Mus musculus [3]): 65%; Kp at 4 h [4]: 0.6; Activity (Mus musculus [5]): 39%; Kp uu at 4 h [11]: 0.09 |
| 7% | 51% | 0.631 µM | 1.86 µM | C[C@]1(c2cc(-c3cncnc3)ccc2F)N=C(N)CO[C@H]1C(F)(F)F (racemic) | – | – | – |

| Compound | metabolised at 0.25 h, 1 µM [1] | metabolised at 0.25 h, 1 µM [2] | IC50 (Beta-secretase 1 [13]) | IC50 (Beta-secretase 1 [14]) | inhibition at 5 min, 3 µM (hERG (KCNH2)) | IC50 [10] | further results |
| --- | --- | --- | --- | --- | --- | --- | --- |
| COc1cnc(C(=O)Nc2ccc(F)c([C@@]3(C)N=C(N)CO[C@H]3C(F)(F)F)c2)cn1 | 2% | 19% | – | – | 19% | > 10 µM | Activity (Mus musculus [3]): 37%; Kp at 4 h [4]: 1.81; Activity (Mus musculus [5]): 23%; fraction unbound at 5 h, 5 µM [6]: 0.02; pKa [7]: 7.8; MTC (HepG2): 15.6 µM; fraction unbound at 4.5 h, 5 µM [8]: 0.155; Activity (Mus musculus [9]): 29%; Kp uu at 4 h [11]: 0.23; Papp A→B at 5 µM [12]: 13.7 ×10⁻⁶ cm/s |

Source: ChEMBL document CHEMBL4130624, “Optimization of 1,4-Oxazine β-Secretase 1 (BACE1) Inhibitors Toward a Clinical Candidate” (J Med Chem, 2018)
